# Literature values in article PMC6429159, “Evolution and Biological Evaluation of Matrinic Derivatives with Amantadine Fragments As New Anti-Influenza Virus Agents” (Molecules, 2019).
# Tested on: influenza virus A/hanfang/359/95 (H3N2)
# Design: method as in PMID 29473520
# Conditions: lead 1, value of previous study; read-out: Anti-H3N2 IC50; cited from earlier work
smiles,measurement,value
"CCCCC1C2CCCN3CCCC(CN1Cc1ccc(C(=O)O)cc1)C23 (stereo not shown) [Compound 1, 12N-p-carboxybenzyl matrinic butane]",IC50,16.2 µM
